Measured values as given in patent publication US11266604B2 (ALAYA (SHANGHAI) BIOSCIENCE CO., LTD, priority 2015, dated 2022).
Entries after “also recorded” stand apart in the source; their conditions may differ.

Legend:
[1] = system: Propionibacterium acnes; test: Antibacterial activity of nanoparticles versus free fatty acid in aqueous system (PBS); assay type: cell-based
From the text: (§1) The present inventors further tested the antibacterial activity of the nanoparticles of the present invention and free fatty acids in an aqueous system.

[2] = system: H. pylori; test: as above; assay type: cell-based, Helicobacter pylori; details: same concentration (0.3% w/v)
From the text: as §1

Row | Compound | bactericidal effect on Propionibacterium acnes in aqueous system [1] | bactericidal activity against H. pylori in aqueous system [2]
1 | CCCCCCCCCCCC(=O)O [free lauric acid, lauric acid] | almost no bactericidal effect | 
2 | CCCC/C=C\CCCCCCCC(=O)O [free myristoleic acid, myristoleic acid] |  | does not exhibit activities against H. pylori; also recorded: did not show bactericidal activity
